Test results from article PMC10584170, “Machine learning-based phenotypic imaging to characterise the targetable biology of Plasmodium falciparum male gametocytes for the development of transmission-blocking antimalarials” (PLOS Pathogens, 2023).
Read-outs that look alike come from different tables or passages of the source.

Legend:
[1] = test system: P. falciparum female gametocytes; test: P. falciparum Dual Gamete Formation Assay (PfDGFA), female readout (Pfs25-positive female gametes); assay type: cell-based, Plasmodium falciparum NF54; details: for inhibition at 2 µM: 24h preincubation with gametocytes
How it was run: (§1)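 NF54 mature gametocytes (d14), cpd 24 h 37°C hypoxic gas; trigger: xanthurenic acid ookinete medium + Cy3 anti-Pfs25, 4°C 4 min → 28°C 4 min. Male: exflagellation centres, brightfield x6. Female: Pfs25+ gametes, fluorescence, +24 h 28°C dark.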

[2] = test system: P. falciparum male gametocytes; test: P. falciparum Dual Gamete Formation Assay (PfDGFA), male readout (exflagellation); assay type: cell-based, Plasmodium falciparum NF54; details: for inhibition at 2 µM: 24h preincubation with gametocytes
How it was run: as §1

[3] = test system: P. falciparum male gametocytes; test: PhIDDLI timecourse assay, compound added at timepoints after triggering male gametogenesis; assay type: cell-based, Plasmodium falciparum NF54
Experimental: To gain greater understanding of their activity, selected molecules displaying different inhibition phenotypes in the initial screen were re-tested. Rather than subjecting gametocytes to a 24h preincubation prior to inducing gametogenesis, compounds were added at varying timepoints after triggering male gametogenesis. Samples were then fixed 20 min post-induction, imaged and analysed similarly using the PhIDDLI pipeline.
Alternatively, if compound action over time was to be assessed, 1.5ml tubes with appropriate dilutions of test compounds were prepared for each timepoint. Gametogenesis was then triggered in the mature gametocyte culture with ookinete medium and temperature decrease from 37°C. At appropriate times, 200 μl of triggered culture was sampled and mixed with test compound. All samples were then allowed to continue gametogenesis and fixed as described previously with paraformaldehyde after 20 min (when a DMSO-treated sample could be expected to be exflagellating).
100 μl of the fixed cell suspensions were added to wells of a 24 well plate containing 1ml PBS and a poly-l-lysine-coated glass coverslip. Cells were allowed to settle and adhere to the coverslip overnight at 4°C before coverslips were transferred to a hydrophobic membrane (Parafilm) for immunofluorescence staining in a humidified, dark box. Cells were permeabilised with 0.1% Triton-X100 in PBS for 10 min before washing in PBS three times. Non-specific binding was blocked by incubating coverslips with PBS + 10% fetal bovine serum (FBS) (blocking buffer) for 1 h. Gametocytes and microgametes were visualised by labelling with an anti-alpha tubulin antibody (raised from chicken embryo brain tubulin but cross-reacts with many other species) (clone DM1A (Sigma)) 1:500 dilution in blocking buffer for 1 h, washed as before, and then stained with an anti-mouse Alexa488 secondary antibody (Thermo-Fisher) 1:1,000 dilution in blocking buffer for a further 1 h. After a final series of washes, the coverslips were mounted on glass slides with VectaShield mountant (Vector Laboratories) containing 4′,6-diamidino-2-phenylindole (DAPI) to visualise cellular DNA.
All slides were imaged using a Nikon Ti fluorescence microscope using an x100 oil objective and 1.5x zoom. For each sample, tubulin-postive, DAPI-positive stained gametocytes/gametes were imaged at random. Z-stack images with 0.3μm slices were captured for each field of view and images deconvolved and transformed by maximum intensity projection within the Nikon NIS Elements software. Within raw images, cells were initially identified by an automated analysis pipeline developed in ICY Bioimage Analysis based upon the intensity of the tubulin staining captured which assigns a region of interest (ROI) around each cell. All ROIs were reviewed by a trained operator and adjusted if necessary to reflect the true outline of the cell (for example if two cells touching had been allocated the same ROI). Raw images contained between 1 and 8 extractable cells.
Code for the PhIDDLI pipeline was written in Python 3.8 and executed by command line within a 64-bit Ubuntu virtual machine running within Oracle VM VirtualBox 6.1. […] Principle component analysis of compound phenotypes (Fig 5) was performed using ClustViz (https://biit.cs.ut.ee/clustvis/) using ln(x+1) transformation, and k-means clustering of the resultant PCA data was coded in R and executed in R Studio version 1.1.456 to identify optimum cluster using the elbow method.

[4] = test system: HepG2 cells; test: HepG2 cytotoxicity counter-screen; details: for Mean TOX: mean of the HepG2 TOX50 values; for DGFA Tox50 HepG2: HepG2 value reported with the DGFA screen
[5] = test system: HepG2 cells; details: cited from earlier work
[6] = test system: P. falciparum gametocytes; set-up: method as in Almela et al 2015; details: ref Almela et al 2015; read-out: Pf Gametocyte viability (ATP) GC-ATP IC50; cited from earlier work
[7] = test system: P. falciparum gametocytes; test: P. falciparum Gametocyte Viability ATP Assay (PfGCT); assay type: cell-based, Plasmodium falciparum; details: Mean TOX HepG2 over GC-ATP IC50; GREEN = >10-fold; RED = <10-fold
Excerpt: Fig 1 The activity of TCAMS compound identified in the Pf DGFA screen. (A) 85 molecules were confirmed active in the Pf DGFA. 58 were previously identified in one or more transmission-blocking screens. […] No molecule was identified with >4.7-fold greater activity against female gametocytes. Abbreviations (IC50 = concentration giving 50% inhibition, PbODA = P. berghei Ookinete Development Assay, PfDGFA = P. falciparum Dual Gamete Formation Assay, PfFGAA = P. falciparum Female Gametocyte Activation Assay, PfGCT = P. falciparum Gametocyte Viability ATP Assay).

[8] = test system: P. falciparum female gametocytes; set-up: method as in Miguel-Blanco et al 2017; details: ref Miguel-Blanco et al 2017; read-out: Pf female gametogenesis FGAA IC50; cited from earlier work
[9] = this study, read-out: Pf DGFA IC50 MALE
[10] = compound added concurrent with triggering male gametogenesis or 2 min later
[11] = compound added later than 2 min post-induction (up to 10 min)
[12] = this study, read-out: Pf DGFA IC50 FEM
[13] = compound added between 0 and 5 min post induction

SMILES | Cytotox ratio Pf Female [1] | Cytotox ratio Pf Male [2] | IC50 [2, 9] [nM] | Mean TOX [4] [µM] | GC-ATP TOX50 HepG2 [5] [µM] | IC50 [6] [nM] | Cytotox ratio Pf GC-ATP [7] | IC50 [1, 12] [nM] | other results
COCCN(C)CCCOc1cc2c(cc1OC)ncn2-c1cc(OCc2ccccc2C(F)(F)F)c(C(N)=O)s1.Cl [TC14] | 1.4 | 22.0 | 620 | 13.65 |  |  |  |  | impact on proportion of cells with replicated DNA ([3]; all timepoints of addition): minimal impact; effect on exflagellation [3, 10]: substantially reduced; effect on exflagellation [3, 11]: not inhibitory
CNC(=O)c1cnc(Nc2ccc(N3CCN(C)CC3)cc2)nc1Nc1ccccc1OC.O=C(O)C(F)(F)F [TC16] | 3.6 | 29.7 | 1200 | 35.63 |  |  |  |  | cells showing apparent DNA replication ([3]; compound added concurrent with induction, fixed 20 min post-induction, DMSO control 61.4%): 21.7%; effect on exflagellation [3, 10]: substantially reduced; amounts of cells showing evidence of DNA replication ([3]; compound added during the first 2 min of male gametogenesis): markedly reduced; effect on exflagellation [3, 11]: not inhibitory
Br.c1cc(C2=NC3CCCCC3N2)ccc1OCCCOc1ccc(C2=NC3CCCCC3N2)cc1 (stereo not shown) [TC17] | 3.1 | 27.3 | 1130 | 30.89 | 25 | 470 | 65.7 |  | 
COCCCNC(=S)NN=C(C)c1ccccn1 [TC19] | 21.8 | 20.8 | 420 | 8.74 | 17 | 160 | 54.6 | 400 | DGFA Tox50 HepG2 [4]: 0.48 µM
Nc1cc(C=Cc2ccc([N+](=O)[O-])o2)nc2ccccc12 [TC58] | 17.9 | 44.7 | 160 | 7.15 | 11.7 | 200 | 35.7 | 400 | 
CCC1CN2CCc3cc(OC)c(OC)cc3C2CC1CC1NCCc2cc(OC)c(OC)cc21.Cl (stereo not shown) [TC73] |  |  | 3530 | 17.84 | 17.68 | 120 |  | 750 | IC50 [8]: 1820 nM; FGAA TOX50 HepG2 [5]: 2.24 µM; ODA TOX50 HepG2 [5]: 23.9883 µM
O=C(C1CC1)N1c2ccccc2CCc2ccccc21 [TCMDC-123880] |  |  |  | 100.00 |  |  |  |  | Selectivity ratio F ([1]; HepG2 Tox50 versus female IC50): 10; Cytotox ratio Pf Female ([1]; Mean TOX HepG2 over DGFA IC50 FEM, GREEN = >10-fold, RED = <10-fold): 10.0; inhibition at 2 µM ([1]; Plasmodium falciparum, average of replicates, read-out: Average inhibition female (%)): 7.7%; inhibition at 2 µM ([1]; Plasmodium falciparum, replicate R1, read-out: % inhibition female (individual replicates) R1): 12.4%; inhibition at 2 µM ([1]; Plasmodium falciparum, replicate R2, read-out: % inhibition female (individual replicates) R2): -4.3%; inhibition at 2 µM ([1]; Plasmodium falciparum, replicate R3, read-out: % inhibition female (individual replicates) R3): 22.7%; inhibition at 2 µM ([1]; Plasmodium falciparum, replicate R4, read-out: % inhibition female (individual replicates) R4): 0.07%; IC50 ([1]; Plasmodium falciparum, PfDGFA, 24 h incubation with gametocytes before induction, female gamete readout, read-out: Female IC50): > 10000 nM; Selectivity Ratio M ([2]; HepG2 Tox50 versus male IC50): 180.08; Cytotox ratio Pf Male ([2]; Mean TOX HepG2 over DGFA IC50 MALE, GREEN = >10-fold, RED = <10-fold): 178.6; inhibition at 2 µM ([2]; Plasmodium falciparum, average of replicates, read-out: Average inhibition male (%)): 95.8%; inhibition at 2 µM ([2]; Plasmodium falciparum, replicate R1, read-out: % inhibition male (individual replicates) R1): 98.9%; inhibition at 2 µM ([2]; Plasmodium falciparum, replicate R2, read-out: % inhibition male (individual replicates) R2): 92.4%; inhibition at 2 µM ([2]; Plasmodium falciparum, replicate R3, read-out: % inhibition male (individual replicates) R3): 99.8%; inhibition at 2 µM ([2]; Plasmodium falciparum, replicate R4, read-out: % inhibition male (individual replicates) R4): 92.2%; IC50 ([2]; Plasmodium falciparum, PfDGFA, 24 h incubation with gametocytes before induction, exflagellation readout, read-out: Male IC50): 560 nM; effect on exflagellation [3, 13]: strongly inhibited exflagellation; DGFA Tox50 HepG2 [4]: 100 µM
CC[C@]1(O)C[C@@H]2CN(CCc3c([nH]c4ccccc34)[C@@](C(=O)OC)(c3cc4c(cc3OC)N(C)[C@H]3[C@@](O)(C(=O)OC)[C@H](OC(C)=O)[C@]5(CC)C=CCN6CC[C@]43[C@@H]65)C2)C1 [vinblastine, reference compound] |  |  |  |  |  |  |  |  | effect on exflagellation [3, 13]: strongly inhibited exflagellation
